# Read-outs that look alike come from different tables or passages of the source.
# Columns and labels:
# [1] = system: P. falciparum 3D7 parasites; assay: P. falciparum growth inhibition assay, 1-cycle (72 h treatment), SYBR DNA staining (library screen at 2 μg/mL and dose-response); format: cell-based, Plasmodium falciparum; conditions: for activity at 2 µg/mL: Plasmodium falciparum, 3D7
# [2] = system: P. falciparum 3D7 parasites; assay: P. falciparum growth inhibition assay, 2-cycle (120 h treatment), delayed-death screen and dose-response; format: cell-based, Plasmodium falciparum; conditions: for activity at 2 µg/mL: Plasmodium falciparum, 3D7
# [3] = system: T. gondii RH strain (RH-Tub-eYFP) tachyzoites; assay: microbe, parasite or virus in culture; format: cell-based, Toxoplasma gondii; conditions: 72 h; for percent parasite growth at 2 µg/mL: Toxoplasma gondii
# [4] = P. falciparum, 72 h, parasite screen 2 μg/mL, % growth, replicate 1, read-out: Pf_72h_%Growth_Rep1
# [5] = P. falciparum, 72 h, parasite screen 2 μg/mL, % growth, replicate 2, read-out: Pf_72h_%Growth_Rep2
# [6] = P. falciparum, 120 h, parasite screen 2 μg/mL, % growth, replicate 1, read-out: Pf_120h_%Growth_Rep1
# [7] = P. falciparum, 120 h, parasite screen 2 μg/mL, % growth, replicate 2, read-out: Pf_120h_%Growth_Rep2
# [8] = P. falciparum 3D7, 72 h, library screen at 2 μg/mL, % growth, replicate 1
# [9] = P. falciparum 3D7, 72 h, library screen at 2 μg/mL, % growth, replicate 2
# [10] = P. falciparum 3D7, 120 h, library screen at 2 μg/mL, % growth, replicate 1
# [11] = P. falciparum 3D7, 120 h, library screen at 2 μg/mL, % growth, replicate 2
# [12] = T. gondii RH, library screen at 2 μg/mL, % growth, replicate 1
# [13] = T. gondii RH, library screen at 2 μg/mL, % growth, replicate 2
# [14] = P. falciparum, 72 h, screen at 2 μg/mL, replicate 1, read-out: Pf_72h_%Growth_Rep1
# [15] = P. falciparum, 72 h, screen at 2 μg/mL, replicate 2, read-out: Pf_72h_%Growth_Rep2
# [16] = P. falciparum, 120 h, screen at 2 μg/mL, replicate 1, read-out: Pf_120h_%Growth_Rep1
# [17] = P. falciparum, 120 h, screen at 2 μg/mL, replicate 2, read-out: Pf_120h_%Growth_Rep2
# [18] = library screen at 2 μg/mL, 72 h, % growth, replicate 1
# [19] = library screen at 2 μg/mL, 72 h, % growth, replicate 2
# [20] = library screen at 2 μg/mL, 120 h, % growth, replicate 1
# [21] = library screen at 2 μg/mL, 120 h, % growth, replicate 2
# [22] = library screen at 2 μg/mL, % growth, replicate 1
# [23] = library screen at 2 μg/mL, % growth, replicate 2
smiles,measurement,setting,value
"CO[C@H]1C[C@H](O[C@@H]2/C(C)=C/C[C@@H]3C[C@@H](C[C@]4(CC[C@H](C)[C@@H](C5CCCCC5)O4)O3)OC(=O)[C@@H]3C=C(C)/C(=N/O)[C@H]4OC/C(=C\C=C\[C@@H]2C)[C@]43O)O[C@@H](C)[C@@H]1O [selamectin, reference compound]",selectivity for P. falciparum in the screens,[1],selective for P. falciparum
same,activity at 2 µg/mL,[1]; [4],3.56%
same,activity at 2 µg/mL,[1]; [5],6.13%
same,activity at 2 µg/mL,[2]; [6],2.99%
same,activity at 2 µg/mL,[2]; [7],8.34%
same,percent parasite growth at 2 µg/mL,[3]; read-out: Tg_72h_%Growth_Rep1,116%
same,percent parasite growth at 2 µg/mL,[3]; read-out: Tg_72h_%Growth_Rep2,78.2%
CC1=C[C@H](O/C=C2/C(=O)O[C@@H]3c4ccccc4C[C@H]23)OC1=O [BIA-G1793],Pf_72h_%Growth_Rep1,[1]; [8],84.39%
same,Pf_72h_%Growth_Rep2,[1]; [9],84.87%
same,Pf_120h_%Growth_Rep1,[2]; [10],86.54%
same,Pf_120h_%Growth_Rep2,[2]; [11],104.67%
same,Tg_72h_%Growth_Rep1,[3]; [12],120.90%
same,Tg_72h_%Growth_Rep2,[3]; [13],91.67%
CCCCCCCCCCCCCCCC(=O)NC1CCOC1=O (stereo not drawn) [BIA-H1500],Pf_72h_%Growth_Rep1,[1]; [8],91.73%
same,Pf_72h_%Growth_Rep2,[1]; [9],78.97%
same,Pf_120h_%Growth_Rep1,[2]; [10],95.21%
same,Pf_120h_%Growth_Rep2,[2]; [11],120.58%
same,Tg_72h_%Growth_Rep1,[3]; [12],108.53%
same,Tg_72h_%Growth_Rep2,[3]; [13],91.16%
C[C@H]1O[C@H](O[C@H]2[C@H](O)[C@@H](O)[C@@H](O[C@H]3[C@H](O)[C@@H](O)C(O)O[C@@H]3CO)O[C@@H]2CO)[C@H](O)[C@@H](O)[C@@H]1N[C@H]1C=C(CO)[C@@H](O)[C@H](O)[C@H]1O (stereo partly drawn) [Acarbose],activity at 2 µg/mL,"[1]; library screen at 2 μg/mL, 72 h, % growth, replicate 1, read-out: Pf_72h_%Growth_Rep1",83.3%
same,activity at 2 µg/mL,"[1]; library screen at 2 μg/mL, 72 h, % growth, replicate 2, read-out: Pf_72h_%Growth_Rep2",87.2%
same,activity at 2 µg/mL,"[2]; library screen at 2 μg/mL, 120 h, % growth, replicate 1, read-out: Pf_120h_%Growth_Rep1",85.5%
same,activity at 2 µg/mL,"[2]; library screen at 2 μg/mL, 120 h, % growth, replicate 2, read-out: Pf_120h_%Growth_Rep2",82.2%
same,percent parasite growth at 2 µg/mL,"[3]; library screen at 2 μg/mL, % growth, replicate 1, read-out: Tg_72h_%Growth_Rep1",105%
same,percent parasite growth at 2 µg/mL,"[3]; library screen at 2 μg/mL, % growth, replicate 2, read-out: Tg_72h_%Growth_Rep2",86.3%
Cc1nnc2n1-c1sc(CCC(=O)N3CCOCC3)cc1C(c1ccccc1Cl)=NC2 [WEB 2086],activity at 2 µg/mL,[1]; [14],87.3%
same,activity at 2 µg/mL,[1]; [15],87.4%
same,activity at 2 µg/mL,[2]; [16],157%
same,activity at 2 µg/mL,[2]; [17],84.4%
same,percent parasite growth at 2 µg/mL,"[3]; T. gondii, screen at 2 μg/mL, replicate 1, read-out: Tg_72h_%Growth_Rep1",91.8%
same,percent parasite growth at 2 µg/mL,"[3]; T. gondii, screen at 2 μg/mL, replicate 2, read-out: Tg_72h_%Growth_Rep2",110%
CC(=O)O[C@H]1CC[C@]2(C)[C@H]3CC[C@]4(C)Oc5oc(C)cc(=O)c5C[C@H]4[C@]3(C)CC[C@H]2C1(C)C [Chevalone C],Pf_72h_%Growth_Rep1,"[1]; P. falciparum, 72 h, screen at 2 μg/mL, replicate 1",92.41%
same,Pf_72h_%Growth_Rep2,"[1]; P. falciparum, 72 h, screen at 2 μg/mL, replicate 2",79.15%
same,Pf_120h_%Growth_Rep1,"[2]; P. falciparum, 120 h, screen at 2 μg/mL, replicate 1",145.74%
same,Pf_120h_%Growth_Rep2,"[2]; P. falciparum, 120 h, screen at 2 μg/mL, replicate 2",96.88%
same,Tg_72h_%Growth_Rep1,"[3]; T. gondii, screen at 2 μg/mL, replicate 1",84.01%
same,Tg_72h_%Growth_Rep2,"[3]; T. gondii, screen at 2 μg/mL, replicate 2",91.63%
CSc1cc(=O)n2c3ccccc3c3ccnc1c32 [BIA-M1959],Pf_72h_%Growth_Rep1,"[1]; P. falciparum 3D7, 72 h, parasite screen at 2 μg/mL, % growth, replicate 1",72.92%
same,Pf_72h_%Growth_Rep2,"[1]; P. falciparum 3D7, 72 h, parasite screen at 2 μg/mL, % growth, replicate 2",92.02%
same,Pf_120h_%Growth_Rep1,"[2]; P. falciparum 3D7, 120 h, parasite screen at 2 μg/mL, % growth, replicate 1",177.81%
same,Pf_120h_%Growth_Rep2,"[2]; P. falciparum 3D7, 120 h, parasite screen at 2 μg/mL, % growth, replicate 2",100.67%
same,Tg_72h_%Growth_Rep1,"[3]; T. gondii, parasite screen at 2 μg/mL, % growth, replicate 1",88.90%
same,Tg_72h_%Growth_Rep2,"[3]; T. gondii, parasite screen at 2 μg/mL, % growth, replicate 2",111.29%
Cc1cc(O)c(O)c2oc(=O)c3c(O)cc(O)cc3c12 [BIA-H1558],Pf_72h_%Growth_Rep1,[1]; [8],87.28%
same,Pf_72h_%Growth_Rep2,[1]; [9],114.26%
same,Pf_120h_%Growth_Rep1,[2]; [10],93.99%
same,Pf_120h_%Growth_Rep2,[2]; [11],107.81%
same,Tg_72h_%Growth_Rep1,[3]; [12],100.18%
same,Tg_72h_%Growth_Rep2,[3]; [13],87.83%
O=C1C=CC(=O)c2c(O)cccc21 [BIA-J1739],Pf_72h_%Growth_Rep1,[1]; [8],80.59%
same,Pf_72h_%Growth_Rep2,[1]; [9],97.69%
same,Pf_120h_%Growth_Rep1,[2]; [10],84.54%
same,Pf_120h_%Growth_Rep2,[2]; [11],95.25%
same,Tg_72h_%Growth_Rep1,[3]; [12],123.29%
same,Tg_72h_%Growth_Rep2,[3]; [13],97.98%
CC1(C)CCC[C@]2(C)[C@@H](C=O)C(C=O)=CC[C@@H]12 [Polygodial],activity at 2 µg/mL,[1]; [4],1.12%
same,activity at 2 µg/mL,[1]; [5],-3.71%
same,activity at 2 µg/mL,[2]; [6],6.02%
same,activity at 2 µg/mL,[2]; [7],28.5%
same,percent parasite growth at 2 µg/mL,"[3]; T. gondii, parasite screen 2 μg/mL, % growth, replicate 1, read-out: Tg_72h_%Growth_Rep1",101%
same,percent parasite growth at 2 µg/mL,"[3]; T. gondii, parasite screen 2 μg/mL, % growth, replicate 2, read-out: Tg_72h_%Growth_Rep2",101%
CC[C@H]1OC(=O)[C@H](C)[C@@H](O[C@H]2C[C@@](C)(OC)[C@@H](O)[C@H](C)O2)[C@H](C)[C@@H](O[C@@H]2O[C@H](C)C[C@H](N(C)C)[C@H]2O)[C@@]2(C)C[C@@H](C)[C@@]3(O[C@@]1(C)[C@H](O)[C@H]3C)O2 [Anhydroerythromycin A],Pf_72h_%Growth_Rep1,[1]; [18],84.47%
same,Pf_72h_%Growth_Rep2,[1]; [19],88.69%
same,Pf_120h_%Growth_Rep1,[2]; [20],87.25%
same,Pf_120h_%Growth_Rep2,[2]; [21],85.54%
same,Tg_72h_%Growth_Rep1,[3]; [22],129.02%
same,Tg_72h_%Growth_Rep2,[3]; [23],98.86%
CC[C@H]1CCC[C@H](O)[C@@H](C)C(=O)C2=C[C@@H]3[C@@H](C=C[C@@H]4C[C@@H](O)C[C@@H]34)[C@@H]2CC(=O)O1 [Spinosyn A aglycone],IC50,"[1]; 3D7, 72 h treatment, mean ± S.D., n ≥ 3, read-out: IC50 (μM), P. falciparum",> 1 µM
same,Pf_72h_%Growth_Rep1,"[1]; P. falciparum, 72 h, parasite screen 2 μg/mL, % growth, replicate 1",91.52%
same,Pf_72h_%Growth_Rep2,"[1]; P. falciparum, 72 h, parasite screen 2 μg/mL, % growth, replicate 2",38.04%
same,Screen (P. falciparum),"[1]; library screen at 2 μg/mL, 3D7, 72 h, DD from the 120 h timepoint",I
same,Pf_120h_%Growth_Rep1,"[2]; P. falciparum, 120 h, parasite screen 2 μg/mL, % growth, replicate 1",95.52%
same,Pf_120h_%Growth_Rep2,"[2]; P. falciparum, 120 h, parasite screen 2 μg/mL, % growth, replicate 2",13.75%
same,Tg_72h_%Growth_Rep1,"[3]; T. gondii, parasite screen 2 μg/mL, % growth, replicate 1",107.96%
same,Tg_72h_%Growth_Rep2,"[3]; T. gondii, parasite screen 2 μg/mL, % growth, replicate 2",78.11%
O=C(O)CCC(=O)OC[C@@H](NC(=O)C(Cl)Cl)[C@H](O)c1ccc([N+](=O)[O-])cc1 [Chloramphenicol succinate],activity at 2 µg/mL,[1]; [14],111%
same,activity at 2 µg/mL,[1]; [15],86.6%
same,activity at 2 µg/mL,[2]; [16],150%
same,activity at 2 µg/mL,[2]; [17],95.2%
same,percent parasite growth at 2 µg/mL,[3]; read-out: Tg_72h_%Growth_Rep1,79.4%
same,percent parasite growth at 2 µg/mL,[3]; read-out: Tg_72h_%Growth_Rep2,97.4%
COC(=O)[C@@]12C(=O)C(C)C(=O)[C@]1(C)C(C)=C[C@H]1[C@]3(C=O)CC[C@H](OC(C)=O)C(C)(C)[C@H]3CC[C@@]12C (stereo partly drawn) [Andrastin A],Pf_72h_%Growth_Rep1,[1]; [18],79.79%
same,Pf_72h_%Growth_Rep2,[1]; [19],84.23%
same,Pf_120h_%Growth_Rep1,[2]; [20],133.36%
same,Pf_120h_%Growth_Rep2,[2]; [21],82.36%
same,Tg_72h_%Growth_Rep1,[3]; [22],90.21%
same,Tg_72h_%Growth_Rep2,[3]; [23],88.06%
